Reference: the NIST ThermoML archive (doi:10.1021/acs.jced.6b00786)

Experiment: xn = mol fraction of the nth substance listed
Details: 101 kPa, Liquid, Vibrating tube method

NC=O [formamide] + O
mass density [kg/m3]
Details	288.15 K	298.15 K	308.15 K	323.15 K	333.15 K
x1 = 0.00244	–	997.942	994.873	988.848	983.879
x1 = 0.00515	–	998.905	995.763	989.627	984.704
x1 = 0.0086	–	1000.14	996.897	990.671	985.696
x1 = 0.02032	–	1004.2	1000.68	994.128	988.955
x1 = 0.03478	–	1009	1005.15	998.15	992.755
x1 = 0.04976	–	1013.73	1009.5	1002.11	996.5
x1 = 0.06674	–	1018.77	1014.31	1006.45	1000.6
x1 = 0.08229	–	1023.18	1018.42	1010.31	1004.2
x1 = 0.1171	–	1032.35	1027.15	1018.36	1011.84
x1 = 0.1745	–	1045.52	1039.6	1030.08	1023.19
x1 = 0.2169	–	1053.94	1047.65	1037.62	1030.56
x1 = 0.2557	–	1060.92	1054.32	1043.94	1036.75
x1 = 0.3026	–	1068.56	1061.67	1050.89	1043.42
x1 = 0.351	–	1075.56	1068.41	1057.31	1049.67
x1 = 0.4027	–	1082.34	1074.96	1063.57	1055.76
x1 = 0.4487	–	1087.78	1080.22	1068.62	1060.68
x1 = 0.4886	–	1092.05	1084.37	1072.62	1064.58
x1 = 0.5601	–	1099.14	1091.28	1079.26	1071.15
x1 = 0.5916	–	1102.04	1094.1	1081.99	1073.78
x1 = 0.6674	–	1108.34	1100.24	1087.95	1079.63
x1 = 0.7066	–	1111.34	1103.2	1090.81	1082.46
x1 = 0.7495	1122.53	1114.37	1106.15	1093.69	1085.28
x1 = 0.7931	1125.6	1117.37	1109.09	1096.56	1088.11
x1 = 0.8601	1129.96	1121.65	1113.29	1100.66	1092.16
x1 = 0.8996	1132.4	1124.05	1115.65	1102.97	1094.46
x1 = 0.948	1135.23	1126.82	1118.38	1105.65	1097.1
x1 = 0.9753	1136.78	1128.35	1119.88	1107.13	1098.56
x1 = 0.9847	1137.31	1128.87	1120.39	1107.62	1099.05
x1 = 0.9897	1137.59	1129.15	1120.66	1107.9	1099.33
x1 = 0.9959	1137.94	1129.5	1121.01	1108.24	1099.68
x1 = 1	1138.17	1129.73	1121.22	1108.46	1099.88
